Publication PMC8217266 (Clinical Pharmacology and Therapeutics, 2021)

Experiments:
human OAT1 = target: T1, human OAT1 (Homo sapiens, UniProt Q4U2R8); assay: cell-based
T1 sequence (Q4U2R8 1-563): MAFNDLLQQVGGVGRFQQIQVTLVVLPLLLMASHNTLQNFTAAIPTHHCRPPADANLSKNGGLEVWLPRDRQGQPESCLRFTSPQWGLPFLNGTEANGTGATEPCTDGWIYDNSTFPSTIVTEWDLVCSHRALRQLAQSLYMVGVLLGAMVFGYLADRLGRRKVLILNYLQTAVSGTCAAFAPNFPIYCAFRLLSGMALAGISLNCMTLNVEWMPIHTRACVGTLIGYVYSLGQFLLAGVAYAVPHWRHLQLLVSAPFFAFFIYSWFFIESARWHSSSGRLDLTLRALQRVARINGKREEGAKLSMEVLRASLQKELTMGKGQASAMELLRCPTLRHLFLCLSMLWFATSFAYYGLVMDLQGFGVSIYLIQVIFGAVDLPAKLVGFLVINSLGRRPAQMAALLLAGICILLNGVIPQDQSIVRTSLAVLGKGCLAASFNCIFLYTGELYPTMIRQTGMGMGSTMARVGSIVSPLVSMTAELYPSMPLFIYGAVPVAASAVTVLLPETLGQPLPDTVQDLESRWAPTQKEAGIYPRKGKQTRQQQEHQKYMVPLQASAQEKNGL

human MATE1 = target: T2, human MATE1 (Homo sapiens, UniProt Q96FL8); assay: cell-based
T2 sequence (Q96FL8 1-570): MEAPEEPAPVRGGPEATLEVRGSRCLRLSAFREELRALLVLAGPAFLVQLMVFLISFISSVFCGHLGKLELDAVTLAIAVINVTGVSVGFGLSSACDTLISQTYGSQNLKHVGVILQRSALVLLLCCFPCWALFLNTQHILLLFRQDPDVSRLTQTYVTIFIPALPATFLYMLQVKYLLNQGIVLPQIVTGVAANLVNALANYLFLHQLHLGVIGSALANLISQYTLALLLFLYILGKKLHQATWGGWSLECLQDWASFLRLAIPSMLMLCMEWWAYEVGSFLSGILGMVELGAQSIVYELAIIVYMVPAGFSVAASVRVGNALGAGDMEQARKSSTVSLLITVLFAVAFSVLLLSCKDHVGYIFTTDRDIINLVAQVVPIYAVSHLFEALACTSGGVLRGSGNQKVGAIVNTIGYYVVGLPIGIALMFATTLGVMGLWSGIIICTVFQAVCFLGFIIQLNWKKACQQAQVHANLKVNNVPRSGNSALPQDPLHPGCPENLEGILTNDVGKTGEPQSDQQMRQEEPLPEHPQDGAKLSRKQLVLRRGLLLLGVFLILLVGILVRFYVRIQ

P-gp = P-gp (Homo sapiens, UniProt P08183); assay: biochemical
human OCT1 = target: T3, human OCT1 (Homo sapiens, UniProt O15245); assay: cell-based
T3 sequence (O15245 1-554): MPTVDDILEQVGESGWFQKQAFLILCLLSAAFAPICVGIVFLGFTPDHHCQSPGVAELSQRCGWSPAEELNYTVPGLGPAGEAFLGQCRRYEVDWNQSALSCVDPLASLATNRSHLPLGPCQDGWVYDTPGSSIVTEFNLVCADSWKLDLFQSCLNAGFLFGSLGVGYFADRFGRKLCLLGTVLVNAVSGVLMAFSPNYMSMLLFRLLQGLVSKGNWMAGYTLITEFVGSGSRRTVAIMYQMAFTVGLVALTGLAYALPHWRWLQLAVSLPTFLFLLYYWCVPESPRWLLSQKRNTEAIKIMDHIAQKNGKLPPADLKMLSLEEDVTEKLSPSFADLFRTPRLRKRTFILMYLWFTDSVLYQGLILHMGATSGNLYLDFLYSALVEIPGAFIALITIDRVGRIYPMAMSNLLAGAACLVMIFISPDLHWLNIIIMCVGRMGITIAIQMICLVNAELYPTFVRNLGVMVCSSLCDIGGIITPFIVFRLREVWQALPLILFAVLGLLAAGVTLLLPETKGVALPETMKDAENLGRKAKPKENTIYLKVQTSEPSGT

BCRP = target: T4, BCRP (Homo sapiens, UniProt Q9UNQ0); assay: biochemical
T4 sequence (Q9UNQ0 1-655): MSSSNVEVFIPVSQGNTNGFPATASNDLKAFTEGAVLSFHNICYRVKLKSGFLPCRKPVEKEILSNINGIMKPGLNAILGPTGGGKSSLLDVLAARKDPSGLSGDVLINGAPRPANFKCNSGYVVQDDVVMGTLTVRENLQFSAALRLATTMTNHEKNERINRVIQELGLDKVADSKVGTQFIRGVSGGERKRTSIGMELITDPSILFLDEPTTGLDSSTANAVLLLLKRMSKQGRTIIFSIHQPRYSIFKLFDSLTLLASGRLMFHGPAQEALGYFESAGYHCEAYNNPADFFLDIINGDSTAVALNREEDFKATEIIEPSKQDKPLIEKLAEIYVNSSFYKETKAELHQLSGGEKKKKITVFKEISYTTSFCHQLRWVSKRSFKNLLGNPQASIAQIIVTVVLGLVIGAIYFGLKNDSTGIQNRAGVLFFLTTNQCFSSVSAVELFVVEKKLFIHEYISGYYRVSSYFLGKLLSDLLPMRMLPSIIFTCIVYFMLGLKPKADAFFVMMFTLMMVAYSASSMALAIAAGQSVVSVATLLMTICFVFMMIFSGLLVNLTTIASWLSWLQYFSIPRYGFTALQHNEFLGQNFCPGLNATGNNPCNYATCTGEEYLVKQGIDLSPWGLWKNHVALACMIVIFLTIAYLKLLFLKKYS

human OAT3 [1] = target: T5, human OAT3 (Homo sapiens, UniProt Q8TCC7); assay: cell-based
T5 sequence (Q8TCC7 1-542): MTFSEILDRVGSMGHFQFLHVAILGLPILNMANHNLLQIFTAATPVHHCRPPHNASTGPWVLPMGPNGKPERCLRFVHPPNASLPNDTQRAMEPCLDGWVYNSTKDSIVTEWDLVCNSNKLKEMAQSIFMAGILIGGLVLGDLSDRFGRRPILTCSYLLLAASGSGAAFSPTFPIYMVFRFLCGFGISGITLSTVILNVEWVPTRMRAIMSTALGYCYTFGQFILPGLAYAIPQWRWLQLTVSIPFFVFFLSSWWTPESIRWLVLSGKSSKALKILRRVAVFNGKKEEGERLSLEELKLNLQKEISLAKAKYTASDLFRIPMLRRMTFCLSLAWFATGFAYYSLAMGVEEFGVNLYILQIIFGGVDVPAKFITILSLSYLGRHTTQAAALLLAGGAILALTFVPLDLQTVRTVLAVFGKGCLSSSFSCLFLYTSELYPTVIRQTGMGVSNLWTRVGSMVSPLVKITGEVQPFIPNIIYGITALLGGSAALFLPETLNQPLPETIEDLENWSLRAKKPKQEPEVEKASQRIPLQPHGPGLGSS

human MATE2 = human MATE2 (Homo sapiens, UniProt Q86VL8); assay: cell-based
[2] = tested on: transporters at major organ sites; assay: Prediction of transporter-mediated inhibition / DDI potential; parameters: species or system human; conditions: of 11 transporters; FDA criteria
human OAT3 [3] = target: T5, human OAT3; conditions: human
[4] = tested on: triglycerides, LDL cholesterol, and total cholesterol, biomarkers of OCT1 activity; assay: UCSF EHR analysis: lipid levels in patients with HIV, on vs off drug; type: in vivo, human

Chain of P-gp (P08183 whole entry): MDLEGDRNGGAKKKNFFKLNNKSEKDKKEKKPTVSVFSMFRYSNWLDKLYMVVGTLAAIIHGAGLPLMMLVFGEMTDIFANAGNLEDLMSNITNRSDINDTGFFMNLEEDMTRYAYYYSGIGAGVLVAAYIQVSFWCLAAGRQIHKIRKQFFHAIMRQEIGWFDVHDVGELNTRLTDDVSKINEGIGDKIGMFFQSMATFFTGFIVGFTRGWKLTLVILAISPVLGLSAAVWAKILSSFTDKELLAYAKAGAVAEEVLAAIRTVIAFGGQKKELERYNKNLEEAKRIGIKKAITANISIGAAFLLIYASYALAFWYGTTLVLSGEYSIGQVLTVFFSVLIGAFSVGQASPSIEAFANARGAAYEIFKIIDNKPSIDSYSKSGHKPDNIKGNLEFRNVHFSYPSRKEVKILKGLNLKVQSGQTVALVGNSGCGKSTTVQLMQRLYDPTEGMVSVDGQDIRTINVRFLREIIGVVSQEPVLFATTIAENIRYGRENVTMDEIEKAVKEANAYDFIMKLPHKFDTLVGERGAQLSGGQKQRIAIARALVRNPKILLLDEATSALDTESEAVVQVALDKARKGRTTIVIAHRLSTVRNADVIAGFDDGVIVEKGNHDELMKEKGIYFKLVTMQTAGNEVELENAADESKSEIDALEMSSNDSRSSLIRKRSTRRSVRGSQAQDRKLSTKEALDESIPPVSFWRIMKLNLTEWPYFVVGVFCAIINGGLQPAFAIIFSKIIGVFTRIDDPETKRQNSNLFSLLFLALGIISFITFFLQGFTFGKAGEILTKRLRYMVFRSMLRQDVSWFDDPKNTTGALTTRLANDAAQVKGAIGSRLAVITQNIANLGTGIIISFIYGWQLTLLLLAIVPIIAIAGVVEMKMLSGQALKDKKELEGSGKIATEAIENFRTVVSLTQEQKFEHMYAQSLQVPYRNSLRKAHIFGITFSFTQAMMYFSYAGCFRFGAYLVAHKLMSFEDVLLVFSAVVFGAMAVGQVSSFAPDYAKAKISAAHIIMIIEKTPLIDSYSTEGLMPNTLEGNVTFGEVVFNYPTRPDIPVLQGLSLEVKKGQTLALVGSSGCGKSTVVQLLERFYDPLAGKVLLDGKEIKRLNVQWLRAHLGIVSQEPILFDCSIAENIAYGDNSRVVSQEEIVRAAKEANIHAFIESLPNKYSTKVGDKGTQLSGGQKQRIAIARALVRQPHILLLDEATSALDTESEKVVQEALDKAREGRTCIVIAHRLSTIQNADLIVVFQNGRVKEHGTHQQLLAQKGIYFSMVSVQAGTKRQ
Chain of human MATE2 (Q86VL8 1-566 isoform Q86VL8-3): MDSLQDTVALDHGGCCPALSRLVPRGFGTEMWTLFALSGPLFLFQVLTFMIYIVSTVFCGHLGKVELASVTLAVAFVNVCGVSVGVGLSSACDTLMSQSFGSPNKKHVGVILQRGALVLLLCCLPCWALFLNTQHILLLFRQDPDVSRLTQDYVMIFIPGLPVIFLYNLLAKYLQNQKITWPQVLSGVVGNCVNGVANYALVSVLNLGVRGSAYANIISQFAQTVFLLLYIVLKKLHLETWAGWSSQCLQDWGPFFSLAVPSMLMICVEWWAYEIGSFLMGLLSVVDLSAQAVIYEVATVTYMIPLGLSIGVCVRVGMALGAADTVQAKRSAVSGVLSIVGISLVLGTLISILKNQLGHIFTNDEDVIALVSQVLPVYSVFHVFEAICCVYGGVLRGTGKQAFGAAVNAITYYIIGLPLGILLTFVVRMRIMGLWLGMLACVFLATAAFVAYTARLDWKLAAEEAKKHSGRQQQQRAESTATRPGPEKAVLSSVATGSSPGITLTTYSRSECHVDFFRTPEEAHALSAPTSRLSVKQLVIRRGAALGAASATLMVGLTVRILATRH

Structure (SMILES) | IC50 (human OAT1) [µM] | IC50 (human MATE1) [µM] | IC50 (P-gp) [µM] | IC50 (human OCT1) [µM] | IC50 (BCRP) [µM] | IC50 (human OAT3 [1]) [µM] | IC50 (human MATE2) [µM] | No. of transporters at major organ sites inhibited at clinical concentrations [2] | Cu,max/IC50 OAT3 (human OAT3 [3]) | LDL cholesterol, Average On drug ([4]; matched 1:1, n=719 each, off drug 99.5, P 0.0033) | Triglyceride, Average On drug ([4]; matched 1:1, n=782 each, off drug 162, P 7.8E-12) | Total cholesterol, Average On drug ([4]; matched 1:1, n=803 each, off drug 168, P 3.1E-13) | LDL cholesterol, Median On drug ([4]; matched 1:1, off drug 96) | Triglyceride, Median On drug ([4]; matched 1:1, off drug 124) | Total cholesterol, Median On drug ([4]; matched 1:1, off drug 165)
CCS(=O)(=O)N1CC(CC#N)(n2cc(-c3ncnc4[nH]ccc34)cn2)C1 [Baricitinib] | > 50 | 36 ± 24 | > 50 | 22.9 ± 18 | > 50 | 12.7 ± 5 | 6.7 ± 5.6 | – | – | – | – | – | – | – | –
CN(C)C(=O)COC(=O)Cc1ccc(OC(=O)c2ccc(NC(=N)N)cc2)cc1 [Camostat] | > 100 | – | 35 | 20.3 ± 21.3 | > 100 | > 100 | 2 ± 1.3 | 1 | – | – | – | – | – | – | –
CCN(CC)CCCC(C)Nc1ccnc2cc(Cl)ccc12 (stereo not drawn) [Chloroquine] | > 100 | 0.8 ± 0.8 | – | 10.7 ± 10.4 | – | > 100 | 0.7 ± 0.2 | 4 | – | – | – | – | – | – | –
COc1cc2c(c(OC)c1OC)-c1ccc(OC)c(=O)cc1[C@@H](NC(C)=O)CC2 [Colchicine] | – | > 100 | 42 | – | > 100 | > 100 | > 100 | – | – | – | – | – | – | – | –
NC(=O)c1nc(F)c[nH]c1=O [Favipiravir] | 52 | > 100 | 55 | > 100 | > 100 | 84.2 ± 19.5 | > 100 | 3 | 3.21 | – | – | – | – | – | –
CCCCCCCCc1ccc(CCC(N)(CO)CO)cc1 [Fingolimod] | 64 | > 100 | 89 | > 100 | > 100 | > 100 | > 100 | 0 | – | – | – | – | – | – | –
CCN(CCO)CCCC(C)Nc1ccnc2cc(Cl)ccc12 (stereo not drawn) [Hydroxychloroquine] | > 100 | 1.9 ± 0.3 | 51.8 ± 20.6 | 20 ± 15.9 | > 100 | > 100 | 0.8 ± 0.1 | 4 | – | – | – | – | – | – | –
Cc1cccc(C)c1OCC(=O)N[C@@H](Cc1ccccc1)[C@@H](O)C[C@H](Cc1ccccc1)NC(=O)[C@H](C(C)C)N1CCCNC1=O [Lopinavir] | > 100 | 22.5 ± 4 | – | > 100 | – | > 100 | 25.1 ± 9.6 | 5 | – | – | – | – | – | – | –
CCOC(=O)C1=C[C@@H](OC(CC)CC)[C@H](NC(C)=O)[C@@H](N)C1 [Oseltamivir] | 90 | > 100 | 44 | > 100 | > 100 | > 100 | > 100 | 1 | – | – | – | – | – | – | –
COc1cc2nc(N3CCN(C(=O)c4ccco4)CC3)nc(N)c2cc1OC [Prazosin] | > 100 | – | – | 1.8 ± 2 | > 100 | – | 2.4 ± 0.9 | – | – | – | – | – | – | – | –
NC(=O)c1ncn([C@@H]2O[C@H](CO)[C@@H](O)[C@H]2O)n1 [Ribavirin] | 99 | > 100 | 47 | > 100 | > 100 | > 100 | > 100 | 2 | – | – | – | – | – | – | –
CC(C)c1nc(CN(C)C(=O)N[C@H](C(=O)N[C@@H](Cc2ccccc2)C[C@H](O)[C@H](Cc2ccccc2)NC(=O)OCc2cncs2)C(C)C)cs1 [Ritonavir] | – | – | – | – | – | – | – | – | – | 106/99.5 mg/dL | 252/162 mg/dL | 190/168 mg/dL | 101/96 mg/dL | 156/124 mg/dL | 182/165 mg/dL
C[C@@H]1CCN(C(=O)CC#N)C[C@@H]1N(C)c1ncnc2[nH]ccc12 [Tofacitinib] | 89 | 1 ± 0.5 | > 100 | 41.4 ± 13 | > 100 | 51.6 ± 7 | 68.5 ± 6.2 | 1 | – | – | – | – | – | – | –
